The values that follow come from patent publication US7923461B2, “TNF-α production inhibitors” (Santen Pharmaceutical Co., Ltd., priority 2000, dated 2011).

Molecules are shown by their SMILES.

The subject of one data set is TNF-α production. Briefly: Inhibitory effects on TNF-α production induced by lipopolysaccharide (LPS) stimulation, in vivo test. Set-up: species or system rat. Particulars: female rats, plasma TNF-α (ELISA) two hours after LPS; for inhibition in vivo at 10 mg/kg / inhibition in vivo at 3 mg/kg: Rattus norvegicus, 2 h, read-out: Inhibition rate (%) of TNF-α production; for inhibition in vivo at 10 mg/kg: oral administration of 10 mg/kg immediately after LPS to footpad; for Inhibition rate (%) of TNF-α production / inhibition in vivo at 3 mg/kg: oral administration of 3 mg/kg immediately after LPS to footpad. As for the experimental part:
Inhibitory effects on TNF-α production induced by lipopolysaccharide (LPS) stimulation were studied by in vivo tests according to the method of Tsuji et al. (Inflamm res. 46 (1997) 193-198).
Female rats (five per group), body weight of about 200 g, about eight weeks old, were used as test animals. LPS from Salmonella was dissolved in physiological saline to prepare an LPS solution (1 mg/ml). Each test substance was dissolved or uniformly suspended in a 1% methylcellulose solution to give test substance-preparation liquids.
The above-mentioned LPS solution (0.5 ml/kg) was administered to a footpad of the rat. Immediately after the LPS administration, the test substance-preparation liquid (containing 10 mg/kg or 3 mg/kg test substance) was orally administered. Two hours after the LPS administration, blood was collected from abdominal aorta and was centrifuged at 4° C. and 3000 rpm for ten minutes. TNF-α levels in the obtained plasma were measured with a rat TNF-α-specific ELISA kit. TNF-α was not observed in the plasma with respect to an LPS-non-administered group (control).
Inhibition rates of TNF-α production of the test substances were determined by the following equation. Inhibition rate (%)=[(A−B)/A]×100 A: TNF-α level in plasma of test substance-nonadministered group B: TNF-α level in plasma of test substance-administered group (Results)
For orientation: ELISA stands for enzyme-linked immunosorbent assay.

`CCCCCN(CCC12CC3CC(CC(C3)C1)C2)C(=O)NCCCc1ccncc1` [Compound No. 1-1, 1-[2-(1-Adamantyl)ethyl]-1-pentyl-3-[3-(4-pyridyl)propyl]urea]: in the data set on TNF-α production, the inhibition in vivo at 10 mg/kg was determined as 92.1%. For the molecule `CN(CCN(CCC12CC3CC(CC(C3)C1)C2)C(=O)CCCCc1ccncc1)C(=O)CC(C)(C)C` [Compound No. 10-17, 5-(4-Pyridyl)valeric acid N-[2-(1-adamantyl)ethyl]-N-[2-[N′-(3,3-dimethylbutyryl)-N′-methylamino]ethyl]amide], the “Inhibition rate (%) of TNF-α production” value in the data set on TNF-α production is reported as 53.8%. Consider `Cc1nc(CN(CCC23CC4CC(CC(C4)C2)C3)C(=O)NCCCc2ccncc2)cs1` [Compound No. 1-37, 1-[2-(1-Adamantyl)ethyl]-1-(2-methylthiazol-4-yl)methyl-3-[3-(4-pyridyl)propyl]urea], for which the inhibition in vivo at 10 mg/kg in the data set with TNF-α production was 84.3%.

On to `CN(CCCc1ccncc1)C(=O)N(C)CCC12CC3CC(CC(C3)C1)C2` [Compound No. 11-1, [2-(1-Adamantyl)ethyl]-1,3-dimethyl-3-[3-(4-pyridyl)propyl]urea], for which the inhibition in vivo at 10 mg/kg in the data set on TNF-α production was 50.8%. Consider `CCCCCN(CCC12CC3CC(CC(C3)C1)C2)C(=O)NC[C@@H]1C[C@@H]1c1ccncc1` (relative stereo) [Compound No. 15-1, cis 1-[2-(1-Adamantyl)ethyl]-1-pentyl-3-[2-(4-pyridyl)cyclopropylmethyl]urea], for which the inhibition in vivo at 3 mg/kg in the data set on TNF-α production was found to be 73.8%. As to `CCCCCN(CCC12CC3CC(CC(C3)C1)C2)C(=O)NCCCc1cc[n+](C)cc1` [Compound No. 4-1, 4-[3-[3-[2-(1-Adamantyl)ethyl]-3-pentylureido]propyl]-1-methylpyridinium iodide], in the data set on TNF-α production, the inhibition in vivo at 3 mg/kg was 42.8%. Take `CCCN(CCC12CC3CC(CC(C3)C1)C2)C(=O)CCCCc1ccncc1` [Compound No. 2-1, 5-(4-Pyridyl)valeric acid N-[2-(1-adamantyl)ethyl]-N-propylamide]: the inhibition in vivo at 10 mg/kg in the data set on TNF-α production is 91.5%. On to `CCCCCN(CCC1CCCCC1)C(=O)NCCCc1ccncc1` [Compound No. 1-44, 1-(2-Cyclohexylethyl)-1-pentyl-3-[3-(4-pyridyl)propyl]urea], for which, in the data set on TNF-α production, the inhibition in vivo at 10 mg/kg was determined as 93.7%. As for `CCCCCN(CCC12CC3CC(CC(C3)C1)C2)C(=O)NCCCc1cc[n+]([O-])cc1` [Compound No. 16-1, 4-[3-[3-[2-(1-Adamantyl)ethyl]-3-pentylureido]propyl]pyridine N-oxide], in the data set with TNF-α production, the inhibition in vivo at 3 mg/kg amounted to 74.3%. Take `O=C(OCCCc1ccncc1)N(CCC(F)(F)F)CCC12CC3CC(CC(C3)C1)C2` [Compound No. 5-4, 3-(4-Pyridyl)propyl N-[2-(1-adamantyl)ethyl]-N-(3,3,3-trifluoropropyl)carbamate]: the inhibition in vivo at 3 mg/kg with TNF-α production amounted to 62.6%. As to `CCCCCN(CCC12CC3CC(CC(C3)C1)C2)C(=O)CNCCc1ccncc1` [Compound No. 18-1, 2-[2-(4-Pyridyl)ethylamino]acetic acid N-[2-(1-adamantyl)ethyl]1-N-pentylamide], the “Inhibition rate (%) of TNF-α production” value in the data set with TNF-α production came to 55.7%. Regarding `CCCCCN(CCC12CC3CC(CC(C3)C1)C2)C(=O)NCCc1ccncc1` [Compound No. 1-80, 1-[2-(1-Adamantyl)ethyl]-1-pentyl-3-[2-(4-pyridyl)ethyl]urea], the melting point fell in the range of 107 to 118 °C. On the same count and under the same terms, the figure for `O=C(NCCCc1ccncc1)N(C1CCCCC1)C1CCCCC1` [Compound No. 1-61, 1,1-Dicyclohexyl-3-[3-(4-pyridyl)propyl]urea] is 143 to 145.5 °C; for `CN(CCN(CCC12CC3CC(CC(C3)C1)C2)C(=O)NCCCc1ccncc1)C(=O)OC(C)(C)C(Cl)(Cl)Cl` [Compound No. 10-10, 1-[2-(1-Adamantyl)ethyl]-1-[2-[N-(1,1-dimethyl-2,2,2-trichloroethoxycarbonyl)-N-methylamino]ethyl]-3-[3-(4-pyridyl)propyl]urea] it is 47 to 52 °C.

For `Cl.O=C1CCN(CCCc2ccncc2)C(=O)N1CCC12CC3CC(CC(C3)C1)C2`, the melting point was 170 °C. In the case of `CCCCCN(CCC12CC3CC(CC(C3)C1)C2)C(=O)NCC(Cc1ccccc1)Cc1ccncc1` (stereo not drawn) [Compound No. 1-109, 1-[2-(1-Adamantyl)ethyl]-3-[2-benzyl-3-(4-pyridyl)propyl]-1-pentylurea], the melting point lay within 111 to 116 °C.

In turn, `Cl.O=C(NCCCc1ccncc1)N(CCC12CC3CC(CC(C3)C1)C2)CCC12CC3CC(CC(C3)C1)C2` showed a melting point of 120 to 122.5 °C.

For `CCCCCN(CCC12CC3CC(CC(C3)C1)C2)C(=O)NCc1ccncc1` [Compound No. 1-74, 1-[2-(1-Adamantyl)ethyl]-1-pentyl-3-(4-pyridyl)methylurea], the melting point fell in the range of 96.5 to 108 °C.

Regarding `O=C(NCCCc1ccncc1)N1CCOCC1` [Compound No. 1-6, N-[3-(4-Pyridyl)propyl]-4-morpholinecarboxamide], the melting point lay in the range of 94 to 98 °C. In turn, `O=C(NCCCc1ccncc1)N1CCc2ccccc2C1` [Compound No. 1-5, N-[3-(4-Pyridyl)propyl]-1,2,3,4-tetrahydroisoquinoline-2-carboxamide] returned a melting point of 76 to 79 °C.

For `O=C(NCCCc1ccncc1)N(CCCC12CC3CC(CC(C3)C1)C2)CC(F)(F)F` [Compound No. 1-123, 1-[3-(1-Adamantyl)propyl]-3-[3-(4-pyridyl)propyl]-1-(2,2,2-trifluoroethyl)urea], the melting point was 88.9 to 90 °C.

Molecule `CC(C)CCN(CCC(C)C)C(=O)NCCCc1ccncc1.Cl` displayed a melting point of 120.5 to 131.7 °C. On the same count and under the same terms, the figure for `CCCN(CCCC12CC3CC(CC(C3)C1)C2)C(=O)NCCCc1ccncc1.O=P(O)(O)O` [Compound No. 13-10, 1-[3-(1-Adamantyl)propyl]-1-propyl-3-[3-(4-pyridyl)propyl]urea phosphate] is 148 to 149 °C; for `CCCCCN(CCC12CC3CC(CC(C3)C1)C2)C(=O)NC/C=C/c1ccncc1` [Compound No. 1-112, (E)-1-[2-(1-Adamantyl)ethyl]-1-pentyl-3-[3-(4-pyridyl)-2-propenyl]urea] it is 90 to 118 °C. The same measure, in the same setting: the figure for `Cl.O=C(NCc1ccncc1)N(CCC1CCCCC1)Cc1cccs1` is 161.8 to 164.4 °C. On the same count and under the same terms, the result for `OCCN(CCc1ccccc1)C(=S)NCCCc1ccncc1` [Compound No. 7-2, 1-(2-Hydroxyethyl)-1-phenethyl-3-[3-(4-pyridyl)propyl]thiourea] reads 105.6 to 107.1 °C. As to `CCCCCN(CCC12CC3CC(CC(C3)C1)C2)C(=O)NCc1ccccn1` [Compound No. 1-72, 1-[2-(1-Adamantyl)ethyl]-1-pentyl-3-(2-pyridyl)methylurea], the melting point lay within 87.5 to 92 °C. Consider `CCCCCN(CCC12CC3CC(CC(C3)C1)C2)C(=O)NCCC(C)c1ccncc1` (stereo not drawn) [Compound No. 1-104, 1-[2-(1-Adamantyl)ethyl]-1-pentyl-3-[3-(4-pyridyl)butyl]urea], for which the melting point was in the range of 93 to 98 °C. On the same count and under the same terms, the figure for `CCCCCN(CCC12CC3CC(CC(C3)C1)C2)C(=O)NCc1cccnc1` [Compound No. 1-73, 1-[2-(1-Adamantyl)ethyl]-1-pentyl-3-(3-pyridyl)methylurea] is 88.5 to 101.5 °C; for `CCCCCN(CCC12CC3CC(CC(C3)C1)C2)C(=O)NCCc1ccccn1` [Compound No. 1-75, 1-[2-(1-Adamantyl)ethyl]-1-pentyl-3-[2-(2-pyridyl)ethyl]urea] it is 80 to 100 °C.

As a reminder, the melting point is the temperature, or range, at which the solid turns liquid.
